What was measured:
rat TAAR1 = rat TAAR1 (Rattus norvegicus (Rat), UniProt Q923Y9); assay: Radioligand binding assay on rat TAAR1; settings: rat TAAR1 (second value of the cell), HEK-293 membranes; read-out: Ki (μM) mouse/rat
Summary of the method: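 Membranes from HEK293 cells stably expressing rat TAAR1 were used, with radioligand Kd determined by saturation for each batch. Compounds (10 pM to 10 μM, in duplicate) were incubated for 1 h at 4 °C. Bound radioactivity was collected by filtration onto PEI-soaked GF/C filters and counted by scintillation.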

mouse TAAR1 = mouse TAAR1 (Mus musculus (Mouse), UniProt Q923Y8); assay: Radioligand binding assay on mouse TAAR1; settings: mouse TAAR1 (first value of the cell), HEK-293 membranes; read-out: Ki (μM) mouse/rat
Sequence of mouse TAAR1 (Q923Y8 whole entry): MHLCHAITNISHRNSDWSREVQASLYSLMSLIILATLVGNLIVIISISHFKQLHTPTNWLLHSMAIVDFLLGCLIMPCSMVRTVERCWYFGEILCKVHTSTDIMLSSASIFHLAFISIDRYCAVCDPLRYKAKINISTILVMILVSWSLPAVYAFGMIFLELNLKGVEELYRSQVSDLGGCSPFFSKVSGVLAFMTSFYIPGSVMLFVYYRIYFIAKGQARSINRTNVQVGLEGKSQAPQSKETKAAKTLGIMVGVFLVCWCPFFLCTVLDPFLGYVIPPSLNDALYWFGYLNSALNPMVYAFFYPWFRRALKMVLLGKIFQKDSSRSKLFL
Summary of the method: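 Membranes from HEK293 cells stably expressing mouse TAAR1, Kd of radioligand determined per batch by saturation. Compounds tested 10 pM to 10 μM in duplicate, incubated 1 h at 4 °C, then filtration over PEI-soaked GF/C filters and scintillation counting.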

Sequence of rat TAAR1 (Q923Y9 whole entry): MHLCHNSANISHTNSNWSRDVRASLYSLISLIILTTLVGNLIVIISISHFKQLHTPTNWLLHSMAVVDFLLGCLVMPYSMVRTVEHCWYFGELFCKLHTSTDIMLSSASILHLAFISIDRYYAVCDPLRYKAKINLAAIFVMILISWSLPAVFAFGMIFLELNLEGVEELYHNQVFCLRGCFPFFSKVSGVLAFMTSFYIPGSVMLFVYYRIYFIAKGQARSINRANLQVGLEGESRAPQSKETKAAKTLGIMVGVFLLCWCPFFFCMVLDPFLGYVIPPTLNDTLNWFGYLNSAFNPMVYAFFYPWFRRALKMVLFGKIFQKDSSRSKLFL

Row | Structure (SMILES) | Ki (rat TAAR1) [µM] | Ki (mouse TAAR1) [µM]
1 | CCOc1cnc(Nc2ccc([C@@H]3CCCNC3)cc2)nc1 [Example 114, (5-Ethoxy-pyrimidin-2-yl)-((S)-4-piperidin-3-yl-phenyl)-amine] | 0.996 | 0.0212
2 | c1ccc(-c2nnc(Nc3ccc([C@H]4CNCCO4)cc3)o2)cc1 [Example 115, (S)—N-(4-(Morpholin-2-yl)phenyl)-5-phenyl-1,3,4-oxadiazol-2-amine] | 0.235 | 0.0079
3 | COCCOc1cnc(Nc2ccc([C@H]3CNCCO3)cc2)nc1 [Example 138] | 1.36 | 0.0641
4 | COCCOc1cnc(Nc2ccc([C@@H]3CNCCO3)cc2)nc1 [Example 139] | 1.06 | 0.0667
5 | COc1ccc(-c2cnc(Nc3ccc([C@H]4CNCCO4)cc3)nc2)cc1OC [Example 141] | 0.0129 | 0.0027
6 | COc1ccc(-c2cnc(Nc3ccc([C@@H]4CNCCO4)cc3)nc2)cc1OC [Example 142] | 0.0146 | 0.0027
7 | Fc1cc([C@@H]2CNCCO2)ccc1Nc1ncc(OCC(F)(F)F)cn1 [Example 144, ((R)-2-Fluoro-4-morpholin-2-yl-phenyl)-[5-(2,2,2-trifluoro-ethoxy)-pyrimidin-2-yl]-amine] | 0.0049 | 0.0042
8 | Fc1cc([C@H]2CNCCO2)ccc1Nc1ncc(OCC(F)(F)F)cn1 [Example 145, ((S)-2-Fluoro-4-morpholin-2-yl-phenyl)-[5-(2,2,2-trifluoro-ethoxy)-pyrimidin-2-yl]-amine] | 0.0067 | 0.0034
9 | c1coc(-c2cnc(Nc3ccc([C@H]4CNCCO4)cc3)nc2)c1 [Example 147, (5-Furan-2-yl-pyrimidin-2-yl)-((S)-4-morpholin-2-yl-phenyl)-amine] | 0.0197 | 0.0009
10 | c1coc(-c2cnc(Nc3ccc([C@@H]4CNCCO4)cc3)nc2)c1 [Example 148, (5-Furan-2-yl-pyrimidin-2-yl)-((R)-4-morpholin-2-yl-phenyl)-amine] | 0.0083 | 0.0017
11 | COCCOc1cnc(Nc2ccc([C@@H]3CNCCO3)cc2F)nc1 [Example 151, ((R)-2-Fluoro-4-morpholin-2-yl-phenyl)-[5-(2-methoxy-ethoxy)-pyrimidin-2-yl]-amine] | 0.0954 | 0.048
12 | COCCOc1cnc(Nc2ccc([C@H]3CNCCO3)cc2F)nc1 [Example 152, ((S)-2-Fluoro-4-morpholin-2-yl-phenyl)-[5-(2-methoxy-ethoxy)-pyrimidin-2-yl]-amine] | 0.268 | 0.0196
13 | FC(F)(F)c1ncc(Nc2ccc([C@H]3CNCCO3)cc2)cn1 [Example 153, ((S)-4-Morpholin-2-yl-phenyl)-(2-trifluoromethyl-pyrimidin-5-yl)-amine] | 0.84 | 0.007
14 | FC(F)(F)c1ncc(Nc2ccc([C@@H]3CNCCO3)cc2)cn1 [Example 154, ((R)-4-Morpholin-2-yl-phenyl)-(2-trifluoromethyl-pyrimidin-5-yl)-amine] | 0.863 | 0.0096
15 | Cc1cnc(Nc2ccc([C@H]3CNCCO3)cc2)cn1 [Example 156, (5-Methyl-pyrazin-2-yl)-((S)-4-morpholin-2-yl-phenyl)-amine] | 0.833 | 0.0093
16 | Cc1cnc(Nc2ccc([C@@H]3CNCCO3)cc2)cn1 [Example 157, (5-Methyl-pyrazin-2-yl)-((R)-4-morpholin-2-yl-phenyl)-amine] | > 10 | 0.0132
17 | CNC(=O)c1cnc(Nc2ccc([C@H]3CNCCO3)cc2)nc1 [Example 158, 2-((S)-4-Morpholin-2-yl-phenylamino)-pyrimidine-5-carboxylic acid methylamide] | 1.85 | 1.02
18 | CNC(=O)c1cnc(Nc2ccc([C@@H]3CNCCO3)cc2)nc1 [Example 159, 2-((R)-4-Morpholin-2-yl-phenylamino)-pyrimidine-5-carboxylic acid methylamide] | 1.76 | 1.34

The remaining compounds from weak to strong by Ki (rat TAAR1), led by results:

Row | Ki (rat TAAR1) [µM] | Ki (mouse TAAR1) [µM] | Structure (SMILES)
19 | 0.197 | 0.0038 | CCc1cnc(Nc2ccc([C@@H]3CCCNC3)cc2)nc1 [Example 112, (5-Ethyl-pyrimidin-2-yl)-((S)-4-piperidin-3-yl-phenyl)-amine]
20 | 0.127 | 0.0116 | CCOc1cnc(Nc2ccc([C@@H]3CNCCO3)cc2)nc1 [Example 105, (5-Ethoxy-pyrimidin-2-yl)-((R)-4-morpholin-2-yl-phenyl)-amine]
21 | 0.105 | 0.0041 | Clc1cnc(Nc2ccc([C@H]3CNCCO3)cc2)nc1 [Example 104, (S)-5-Chloro-N-(4-(morpholin-2-yl)phenyl)pyrimidin-2-amine]
22 | 0.0877 | 0.005 | CCc1cnc(Nc2ccc([C@H]3CNCCO3)cc2C)nc1 [Example 107, (5-Ethyl-pyrimidin-2-yl)-((S)-2-methyl-4-morpholin-2-yl-phenyl)-amine]
23 | 0.0877 | 0.0011 | c1ccc(-c2cc(Nc3ccc([C@H]4CNCCO4)cc3)n[nH]2)cc1 [Example 113, (S)—N-(4-(Morpholin-2-yl)phenyl)-5-phenyl-1H-pyrazol-3-amine]
24 | 0.0847 | 0.0079 | CC(C)Oc1cnc(Nc2ccc([C@H]3CNCCO3)cc2)nc1 [Example 122, (5-Isopropoxy-pyrimidin-2-yl)-((S)-4-morpholin-2-yl-phenyl)-amine]
25 | 0.0814 | 0.0086 | CCc1cnc(Nc2ccc([C@@H]3CNCCO3)cc2C)nc1 [Example 106, (5-Ethyl-pyrimidin-2-yl)-((R)-2-methyl-4-morpholin-2-yl-phenyl)-amine]
26 | 0.0796 | 0.0174 | CC(C)Oc1cnc(Nc2ccc([C@@H]3CNCCO3)cc2)nc1 [Example 123, (5-Isopropoxy-pyrimidin-2-yl)-((R)-4-morpholin-2-yl-phenyl)-amine]
27 | 0.05 | 0.0044 | Clc1cnc(Nc2ccc([C@@H]3CNCCO3)cc2)nc1 [Example 103, (R)-5-Chloro-N-(4-(morpholin-2-yl)phenyl)pyrimidin-2-amine]
28 | 0.0494 | 0.0051 | FC(F)(F)COc1cnc(Nc2ccc([C@H]3CNCCO3)cc2)nc1 [Example 136, ((S)-4-Morpholin-2-yl-phenyl)-[5-(2,2,2-trifluoro-ethoxy)-pyrimidin-2-yl]-amine]
29 | 0.0387 | 0.0052 | CCOc1cnc(Nc2ccc([C@H]3CNCCO3)cc2F)nc1 [Example 133, (5-Ethoxy-pyrimidin-2-yl)-((S)-2-fluoro-4-morpholin-2-yl-phenyl)-amine]
30 | 0.0379 | 0.0028 | Fc1cc([C@H]2CNCCO2)ccc1Nc1ncc(Cl)cn1 [Example 131, (5-Chloro-pyrimidin-2-yl)-((S)-2-fluoro-4-morpholin-2-yl-phenyl)-amine]
31 | 0.0348 | 0.0036 | c1cc([C@H]2CNCCO2)ccc1Nc1ncc(OCC2CC2)cn1 [Example 124, (S)-5-(Cyclopropylmethoxy)-N-(4-(morpholin-2-yl)phenyl)pyrimidin-2-amine]
32 | 0.0278 | 0.0045 | c1cc([C@@H]2CNCCO2)ccc1Nc1ncc(OCC2CC2)cn1 [Example 125, (R)-5-(Cyclopropylmethoxy)-N-(4-(morpholin-2-yl)phenyl)pyrimidin-2-amine]
33 | 0.0223 | 0.0057 | FC(F)(F)c1cnc(Nc2ccc([C@@H]3CNCCO3)cc2)nc1 [Example 95, ((R)-4-Morpholin-2-yl-phenyl)-(5-trifluoromethyl-pyrimidin-2-yl)-amine]
34 | 0.0199 | 0.0051 | Fc1cc([C@@H]2CNCCO2)ccc1Nc1ncc(Cl)cn1 [Example 130, (5-Chloro-pyrimidin-2-yl)-((R)-2-fluoro-4-morpholin-2-yl-phenyl)-amine]
35 | 0.0198 | 0.0057 | Fc1cc([C@H]2CNCCO2)ccc1Nc1ncc(C(F)(F)F)cn1 [Example 135, ((S)-2-Fluoro-4-morpholin-2-yl-phenyl)-(5-trifluoromethyl-pyrimidin-2-yl)-amine]
36 | 0.0182 | 0.0047 | CCOc1cnc(Nc2ccc([C@@H]3CNCCO3)cc2F)nc1 [Example 132, (5-Ethoxy-pyrimidin-2-yl)-((R)-2-fluoro-4-morpholin-2-yl-phenyl)-amine]
37 | 0.0104 | 0.0034 | CCc1cnc(Nc2ccc([C@H]3CNCCO3)cc2F)nc1 [Example 117, (5-Ethyl-pyrimidin-2-yl)-((S)-2-fluoro-4-morpholin-2-yl-phenyl)-amine]
38 | 0.0079 | 0.0069 | Fc1cc([C@@H]2CNCCO2)ccc1Nc1ncc(C(F)(F)F)cn1 [Example 134, ((R)-2-Fluoro-4-morpholin-2-yl-phenyl)-(5-trifluoromethyl-pyrimidin-2-yl)-amine]
39 | 0.007 | 0.0039 | CCc1cnc(Nc2ccc([C@@H]3CNCCO3)cc2F)nc1 [Example 116, (5-Ethyl-pyrimidin-2-yl)-((R)-2-fluoro-4-morpholin-2-yl-phenyl)-amine]
40 | 0.0068 | 0.0043 | CCCc1cnc(Nc2ccc([C@H]3CNCCO3)cc2F)nc1 [Example 129, ((S)-2-Fluoro-4-morpholin-2-yl-phenyl)-(5-propyl-pyrimidin-2-yl)-amine]
41 | 0.0039 | 0.0049 | CCCc1cnc(Nc2ccc([C@@H]3CNCCO3)cc2F)nc1 [Example 128, ((R)-2-Fluoro-4-morpholin-2-yl-phenyl)-(5-propyl-pyrimidin-2-yl)-amine]
42 | 0.0026 | 0.0037 | FC(F)(F)COc1cnc(Nc2ccc([C@@H]3CNCCO3)cc2)nc1 [Example 137, ((R)-4-Morpholin-2-yl-phenyl)-[5-(2,2,2-trifluoro-ethoxy)-pyrimidin-2-yl]-amine]

— patent US8802673B2, “Heterocyclic amine derivatives” (Hoffmann-La Roche Inc, priority 2011, dated 2014)
